Earlier results in patent US12697345B2, “Microparticles containing stabilized CBD oil, and methods for the production thereof” (priority 2021, dated 2026).

Key:
[1] = estimated
[2] = aerosolized
[3] = 600 mg oral CBD, healthy male volunteers

C=C(C)[C@@H]1CCC(C)=CC1c1c(O)cc(CCCCC)cc1O (stereo partly drawn) [CBD, 2-[(6R)-3-methyl-6-prop-1-en-2-ylcyclohex-2-en-1-yl]-5-pentylbenzene-1,3-diol]
Bioavailability from oral delivery [1]: 6%
Time to peak plasma concentrations [2]: 5 to 10 min
mean±SD whole blood level of CBD at 1 hour ([3]; 1 h): 0.36 (0.64) ng/mL
mean±SD whole blood level of CBD at 2 hours ([3]; 2 h): 1.62 (2.98) ng/mL
mean±SD whole blood level of CBD at 3 hours ([3]; 3 h): 3.4 (6.42) ng/mL
